Results reported in ChEMBL document CHEMBL1201862, “PubChem BioAssay data set” (2004).
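Each compound was tested at five concentrations against cells in 96-well plates for 48 hours. At the GI50, growth is halved.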 Calls of active or inactive are those of the source. Rule as the data show it: active = GI50 up to about 1.1 µM and inactive = higher.

What was measured:
Assay in all cases: NCI anticancer screen, dose series, 48 h
HT-29 = tested on: HT-29
LOX IMVI = tested on: LOX IMVI
SNB-19 = tested on: SNB-19
MDA-MB-231 = tested on: MDA-MB-231
SK-MEL-5 = tested on: SK-MEL-5
SF-268 = tested on: SF-268
Malme-3M = tested on: Malme-3M
A549 = tested on: A549
HOP-62 = tested on: HOP-62
SK-OV-3 = tested on: SK-OV-3
MOLT-4 = tested on: MOLT-4
SW-620 = tested on: SW-620
OVCAR-5 = tested on: OVCAR-5
DU-145 = tested on: DU-145
ACHN = tested on: ACHN
COLO 205 = tested on: COLO 205
TK-10 = tested on: TK-10
NCI-H460 = tested on: NCI-H460
HCC 2998 = tested on: HCC 2998
M14 = tested on: M14
PC-3 = tested on: PC-3
SF-539 = tested on: SF-539
IGROV-1 = tested on: IGROV-1
UACC-62 = tested on: UACC-62
HCT-15 = tested on: HCT-15
T47D = tested on: T47D
SF-295 = tested on: SF-295
NCI-H226 = tested on: NCI-H226
K562 = tested on: K562
MCF7 = tested on: MCF7
HOP-92 = tested on: HOP-92
CCRF-CEM = tested on: CCRF-CEM
OVCAR-4 = tested on: OVCAR-4
RPMI-8226 = tested on: RPMI-8226
SNB-75 = tested on: SNB-75
EKVX = tested on: EKVX
CAKI-1 = tested on: CAKI-1
HL-60 = tested on: HL-60
NCI-H522 = tested on: NCI-H522
NCI/ADR-RES = tested on: NCI/ADR-RES
SK-MEL-28 = tested on: SK-MEL-28
MDA-N = tested on: MDA-N
RXF 393 = tested on: RXF 393
SK-MEL-2 = tested on: SK-MEL-2
U-251 = tested on: U-251
MDA-MB-435 = tested on: MDA-MB-435
OVCAR-3 = tested on: OVCAR-3
A498 = tested on: A498
KM12 = tested on: KM12
UO-31 = tested on: UO-31
UACC-257 = tested on: UACC-257
786-0 = tested on: 786-0
NCI-H23 = tested on: NCI-H23
OVCAR-8 = tested on: OVCAR-8
Hs-578T = tested on: Hs-578T
BT-549 = tested on: BT-549
HCT-116 = tested on: HCT-116
SR = tested on: SR
SN12C = tested on: SN12C

Measured: GI50

COC(=O)C1C(=O)N(C)C(=O)N2CCCC12 (stereo not drawn)
> 100 µM: HCT-15
inactive: HT-29 > 100 µM | LOX IMVI > 100 µM | SNB-19 > 100 µM | MDA-MB-231 > 100 µM | SK-MEL-5 > 100 µM | SF-268 > 100 µM | Malme-3M > 100 µM | A549 > 100 µM | HOP-62 > 100 µM | SK-OV-3 > 100 µM | MOLT-4 > 100 µM | SW-620 > 100 µM | OVCAR-5 > 100 µM | DU-145 > 100 µM | ACHN > 100 µM | COLO 205 > 100 µM | TK-10 > 100 µM | NCI-H460 > 100 µM | HCC 2998 > 100 µM | M14 > 100 µM | PC-3 > 100 µM | SF-539 > 100 µM | IGROV-1 > 100 µM | UACC-62 > 100 µM | T47D > 100 µM | SF-295 > 100 µM | NCI-H226 > 100 µM | K562 > 100 µM | MCF7 > 100 µM | HOP-92 > 100 µM | CCRF-CEM > 100 µM | OVCAR-4 > 100 µM | RPMI-8226 > 100 µM | SNB-75 > 100 µM | EKVX > 100 µM | CAKI-1 > 100 µM | HL-60 > 100 µM | NCI-H522 > 100 µM | NCI/ADR-RES > 100 µM | SK-MEL-28 1.4 µM | MDA-N > 100 µM | RXF 393 71.8 µM | SK-MEL-2 > 100 µM | U-251 > 100 µM | MDA-MB-435 > 100 µM | OVCAR-3 > 100 µM | A498 > 100 µM | KM12 > 100 µM | UO-31 > 100 µM | UACC-257 > 100 µM | 786-0 > 100 µM | NCI-H23 > 100 µM | OVCAR-8 > 100 µM | Hs-578T > 100 µM

CCN1CC2=C(NC(=S)NC2c2cc(OC)c(OC)c(OC)c2)/C(=C/c2cc(OC)c(OC)c(OC)c2)C1 (stereo not drawn)
active: Malme-3M 0.871 µM
inactive: HT-29 23.4 µM | LOX IMVI 37.2 µM | SNB-19 36.8 µM | MDA-MB-231 34.1 µM | SK-MEL-5 13.2 µM | SF-268 6.31 µM | A549 26.7 µM | HOP-62 50.6 µM | SK-OV-3 > 100 µM | MOLT-4 20.9 µM | SW-620 86.3 µM | OVCAR-5 14.4 µM | DU-145 33.3 µM | ACHN 44.9 µM | BT-549 46.5 µM | COLO 205 20.1 µM | TK-10 36.1 µM | NCI-H460 46.8 µM | HCC 2998 29.8 µM | M14 16.6 µM | PC-3 26.4 µM | IGROV-1 24.4 µM | UACC-62 31.8 µM | SF-295 53 µM | NCI-H226 27.5 µM | K562 17.3 µM | MCF7 24.6 µM | HOP-92 18.1 µM | CCRF-CEM 37.4 µM | OVCAR-4 75.2 µM | RPMI-8226 14.1 µM | SNB-75 2.74 µM | EKVX 15 µM | CAKI-1 19.4 µM | HL-60 19.5 µM | NCI-H522 10.6 µM | NCI/ADR-RES 30.9 µM | SK-MEL-28 13.7 µM | MDA-N 25.8 µM | RXF 393 33 µM | SK-MEL-2 70.8 µM | U-251 45.1 µM | MDA-MB-435 28.3 µM | OVCAR-3 67.5 µM | A498 27.3 µM | KM12 98.6 µM | UO-31 20.5 µM | UACC-257 59 µM | 786-0 28.4 µM | HCT-116 27.7 µM | NCI-H23 38.2 µM | OVCAR-8 21.7 µM
32 µM: HCT-15

COC(=O)CC1CN(C(=O)OCc2ccccc2)C(C)(C)O1 (stereo not drawn)
inactive: LOX IMVI > 100 µM | SNB-19 7.08 µM | MDA-MB-231 > 100 µM | SK-MEL-5 44.6 µM | Malme-3M 45.3 µM | A549 > 100 µM | SK-OV-3 > 100 µM | MOLT-4 80.2 µM | SW-620 > 100 µM | OVCAR-5 > 100 µM | DU-145 > 100 µM | ACHN > 100 µM | BT-549 4.97 µM | COLO 205 > 100 µM | TK-10 56.9 µM | NCI-H460 > 100 µM | HCC 2998 > 100 µM | M14 > 100 µM | PC-3 62.7 µM | SF-539 > 100 µM | IGROV-1 82.2 µM | UACC-62 > 100 µM | SF-295 > 100 µM | NCI-H226 2 µM | K562 > 100 µM | MCF7 > 100 µM | HOP-92 94.6 µM | CCRF-CEM > 100 µM | OVCAR-4 > 100 µM | SR > 100 µM | RPMI-8226 81.3 µM | SNB-75 3.3 µM | EKVX 35.2 µM | SN12C > 100 µM | CAKI-1 > 100 µM | HL-60 89.9 µM | NCI-H522 5.46 µM | NCI/ADR-RES > 100 µM | SK-MEL-28 9.06 µM | MDA-N > 100 µM | RXF 393 > 100 µM | SK-MEL-2 > 100 µM | U-251 > 100 µM | MDA-MB-435 > 100 µM | OVCAR-3 > 100 µM | A498 > 100 µM | KM12 43.3 µM | UO-31 38.6 µM | UACC-257 > 100 µM | 786-0 > 100 µM | HCT-116 > 100 µM | NCI-H23 28.8 µM | OVCAR-8 > 100 µM
> 100 µM: HCT-15
